Assay results as given in patent US20260130973A1, “COMPOSITIONS AND METHODS FOR DEGRADATION OF LIPOFUSCIN CYCLORETINAL BY MSP1” (THE TEXAS A&M UNIVERSITY SYSTEM, priority 2022, published 2026).

Test: in vitro
Type: cell-based
Settings: human, arpe-19 cells, EC50 (cytotoxicity)
Procedure: The liposomal complexes were prepared as follows. Cycloretinal (10 mg), β-Ionone (20 mg), and 2,4-Dimethylbenzaldehyde (20 mg) were dissolved separately in ethanol (1 mL). Glyoxal (5.80 mg), methylglyoxal (7.21 mg), and β-cyclocitral (15.2 mg) were dissolved separately in chloroform (1 mL). A liposome solution of cholesterol (112 mg), Tween 80 (504 mg), and L-α-phosphatidylcholine (730 mg) were dissolved in 16 mL of chloroform. Liposome solution (2 mL) was added to each of the compounds. The solvents were removed under vacuum and charged with nitrogen. Each of the flasks were then mixed with 5 mL of water and stirred at 60° C. for 1 h. Each solution was placed on ice and sonicated with a probe sonicator (15 seconds on/15 seconds off) for 5 min. The solutions were centrifuged at 11,000×g for 30 min and filtered through a 0.2 μm filter. Each sample (10 μL) was added to 1 mL ethanol and measured by absorption via UV-Vis spectroscopy. […]
Following 24 hour incubation with the liposomal complexes, light induced cell damage was measured by exposing cells to 10 min of irradiation (70 W lamp) through a 430 nm bandpass filter (Thor labs, 430±2 nm). […]
Cell viability was assessed with the MTT cell proliferation assay. […] The absorbance was subsequently evaluated at 570 nm utilizing a microplate reader (quant absorbance plate reader, BioTek Instruments Inc.) […]

CC(C=CC1=C(C)CCCC1(C)C)=CC=CC1=CC=C(C=O)C(C)(C=CC=C(C)C=CC2=C(C)CCCC2(C)C)C1 (stereo not shown) [cycloretinal]
CC50 at 24 h: 93 ± 6.1 µM
